According to paper PMC12631873 (Advanced Science, 2025):
Square brackets hold non-standard residues; d marks the D form. Peptide text beside a SMILES is read from it. * marks the point of attachment. X1 = CN1/C(=C/C=C/C=C/C2=[N+](CCCCCC(=O)*)c3ccc(S(=O)(=O)[O-])cc3C2(C)C)C(C)(C)c2cc(S(=O)(=O)O)ccc21; Hyp = O=C(O)[C@@H]1C[C@@H](O)CN1; Nlys = NCCCCNCC(=O)O; Ahx = NCCCCCC(=O)O

What was measured:
[1] = Serum stability test (HPLC); type: in vitro ADME, mouse; details: 37 °C, HPLC UV 646 nm, n = 3; for degradation in serum (in words): 25% v/v mouse serum, 24 h and even after 48 h
Description: Cy5‐labeled peptidomimetic probes (10 nmol) were incubated in 25% v/v mouse serum (Biosharp, BL1053A diluted in 1× PBS) at 37 °C. Aliquots (200 µL) were taken periodically at 0 (deadtime: ≈10 min), 2, 24, and 48 h, and added to 400 µL of 3.75% trichloroacetic acid in acetonitrile at 4 °C. Then, all samples were centrifuged to remove the precipitated serum proteins at 13800 g for 10 min at 4 °C. The supernatant (150 µL) was taken to mix with 550 µL of water (with 0.1% TFA) to centrifuge again at 2630 g for 5 min at 4 °C. Five microliter of the supernatant was mixed with 200 µL of water containing 0.1% TFA as the final samples for HPLC analysis at room temperature monitored by absorbance at 646 nm with the integral area of the intact fraction recorded. The peak area for the 10 min time point was designated as 100% intact, and each peak area at successive time points was normalized to the 10 min peak to calculate the percent compound remaining. All the experiments were repeated three times.

[2] = Organ fluorescence 2 h post-injection (clearance route); type: in vivo, mouse; details: nude mice, organs isolated 2 h post i.v. injection of 1 nmol
Description: (§1) Typically, the fluorescence peptides or peptoids were prepared at a dose of 1 nmol (10 µM in 100 µL of 1× PBS buffer) and injected into the tail vein of each mouse 2 h prior to fluorescence imaging with an IVIS Spectrum imager (PerkinElmer Lumina III). For Figure 4, Figures S17 and S18 (Supporting Information) (joint aging and RA) and Figure S27 (Supporting Information), 2 nmol of Cy5‐(NlysO)7 (20 µM in 100 µL of 1× PBS buffer) were i.v. administered to each mouse. For 1‐week‐old neonatal mice, 1 nmol of Cy5‐(NlysO)7 (20 µM in 50 µL of 1× PBS buffer) was intravenously injected into each mouse. All in vivo imaging was performed 2 h post probe injection with the IVIS Spectrum imager (PerkinElmer, fluorescence: ex/em: 620/670 nm, exposure: 1 s, bing: 4, F/Stop: 2; field of view: A/B/C/Z). Mice were anesthesia with 3% isoflurane (RWD, R510‐22‐10) during image acquisition. Hair in the knee areas was removed before fluorescence imaging for mice in Figure 4a and Figure S17 (Supporting Information). The mice were euthanized following the final image acquisition and occasionally imaged again after skin and organ removal. Next, the airways, ankles, ears, paws, knees, tails, spines, and chest ribs were collected, imaged, and saved for subsequent histology analysis. All acquired fluorescence images were analyzed using the Living Image software (PerkinElmer). The fluorescence signal from each specimen was measured by quantifying the average radiation efficiency within the selected oval‐shaped regions‐of‐interest.

[3] = tested on: vitreous bodies and skin; test: In vivo uptake in vitreous bodies and skin; details: mouse, 2 h post i.v. injection of 2 nmol
Description: as §1, with “Next, the airways, ankles, ears, paws, knees, tails, spines, and chest ribs were collected, imaged, and saved for subsequent histology analysis.” left out

[4] = Blood biochemical analysis; type: in vivo, mouse; details: C57BL/6J mice, 24 h post i.v. injection of 2 nmol, n = 5
Description: Blood biochemical analysis: Each C57BL/6J mouse (6–8 weeks old) was intravenously injected with 100 µL of PBS or Cy5‐(NlysO)7 (2 nmol in 100 µL 1× PBS buffer per mouse) 24 h prior to blood collection for the biochemical analysis. Biochemical analysis of the blood was performed by Wuhan Servicebio.

[5] = Routine (whole) blood tests after repeated dosing; type: in vivo, mouse; details: C57BL/6J mice, 3 weekly i.v. doses of 2 nmol over 14 days, n = 5
Description: Whole blood tests: Each C57BL/6J mouse (6–8 weeks old) was intravenously injected with 100 µL of PBS buffer or with each peptide or peptoid probe (2 nmol in 100 µL 1× PBS buffer per mouse) on days 0, 7, and 14. The mice were sacrificed on day 15, 24 h after the final injection. The heart, liver, spleen, lungs, and kidneys were collected from each mouse and processed into formalin‐fixed paraffin‐embedded sections for histological evaluation with H&E staining. Whole blood was collected. Both H&E and blood sample analyses were performed by Wuhan Servicebio.

[6] = In vitro cartilage uptake (absorption); details: after 30 min; 10 mg porcine cartilage slice, 10 µM in 200 µL 1× PBS, room temperature, fluorescence, n = 6
Description: Porcine cartilage was freshly harvested from the articular cartilage of an adult pig's knee joint obtained from a local slaughterhouse. Porcine cartilage plugs (diameter: 6 mm) were excised using an osteotomy drill with constant rinsing with PBS buffer for cooling. All solutions in the experiments with unfixed porcine cartilage samples (e.g., Figure 2d–f; Figures S5 and S6, Supporting Information) contained 100 U mL^−1 penicillin and 0.1 mg mL^−1 streptomycin (Solarbio, P1400) to prevent bacterial growth.
The porcine cartilage plugs were carefully cut into small cuboids with a uniform size (≈5 × 1 × 2 mm, ≈10 mg by wet weight). […] Each incubation bath was aliquoted so its fluorescence FN1 of the incubation bath was measured without the cartilage samples using a microplate reader (PerkinElmer EnVision; excitation: 646 nm, emission: 662 nm) at specified time points (N1 = 0.5, 1, 2, 4, 6, 8, 10, 12, and 24 h) to estimate the absorption of the probes (Figure 2d; Figure S5, Supporting Information), while fluorescence levels of the compound solutions pre‐measured before incubation were recorded as Fpre. The unabsorbed percent was calculated as FN1/Fpre×100%, and the final fluorescence measurement after 24 h of absorption was recorded as F24h. […]

Compound	degradation in serum (in words) [1]	clearance route from organ fluorescence [2]	in vivo fluorescence uptake in vitreous bodies and skin compared to cartilage [3]	blood biochemical analytes (ALT, AST, TBIL, UREA, BUN, CREA) vs PBS group [4]	routine blood analyses vs PBS control group [5]	unabsorbed percent of starting concentration remaining in solution [6]	intact compound remaining after 2 h serum incubation ([1]; 25% v/v mouse serum in 1× PBS, 10 nmol probe, peak area normalized to 10 min)
CN1/C(=C/C=C/C=C/C2=[N+](CCCCCC(=O)NCCCCCC(=O)N(CCCCN)CC(=O)N3C[C@H](O)C[C@H]3C(=O)N(CCCCN)CC(=O)N3C[C@H](O)C[C@H]3C(=O)N(CCCCN)CC(=O)N3C[C@H](O)C[C@H]3C(=O)N(CCCCN)CC(=O)N3C[C@H](O)C[C@H]3C(=O)N(CCCCN)CC(=O)N3C[C@H](O)C[C@H]3C(=O)N(CCCCN)CC(=O)N3C[C@H](O)C[C@H]3C(=O)N(CCCCN)CC(=O)N3C[C@H](O)C[C@H]3C(N)=O)c3ccc(S(=O)(=O)[O-])cc3C2(C)C)C(C)(C)c2cc(S(=O)(=O)O)ccc21 [Cy5‐(NlysO)7] ({X1-Ahx}-[Nlys][Hyp][Nlys][Hyp][Nlys][Hyp][Nlys][Hyp][Nlys][Hyp][Nlys][Hyp][Nlys][Hyp]-NH2)	hardly degraded	might be mainly cleared through kidneys	virtually no in vivo fluorescence uptake	no key analytes from the Cy5‐(NlysO)7 group significantly differed	None of the measurements		
CN1/C(=C/C=C/C=C/C2=[N+](CCCCCC(=O)NCCCCCC(=O)N[C@@H](CCCNC(=N)N)C(=O)N[C@@H](CCCNC(=N)N)C(=O)N[C@@H](CCCNC(=N)N)C(=O)N[C@@H](CCCNC(=N)N)C(=O)N[C@@H](CCCNC(=N)N)C(=O)N[C@@H](CCCNC(=N)N)C(=O)N[C@@H](CCCNC(=N)N)C(=O)N[C@@H](CCCNC(=N)N)C(N)=O)c3ccc(S(=O)(=O)[O-])cc3C2(C)C)C(C)(C)c2cc(S(=O)(=O)O)ccc21 [Cy5‐R8, reference compound]	extremely unstable					≈ 20%	no intact R8 peptide remained
